Reference: patent publication US5407951A, “Sulphonamidocycloalkane compounds, pharmaceutical compositions containing them, and methods of use thereof” (Boehringer Mannheim GmbH, priority 1988, dated 1995)

Assays:
[1] = tested on: Platelet-rich human blood plasma; experiment: In vitro inhibition of platelet aggregation induced by thromboxane mimetic U46619 (Born and Cross, aggregometer); assay type: cell-based; conditions: citrated platelet-rich human plasma, measured for five minutes
Description: (a) In vitro Inhibition of Platelet Aggregation.
Platelet-rich human blood plasma was treated with 3.2% citrate at a volume ratio of 1:9 to inhibit clotting. A selective thromboxane mimetic, U46619, which is a stable analog of the prostaglandin endoperoxide PGH2, as described by Coleman et al., Brit. J. Pharmocol. 68,127P (1980) was obtained from Upjohn & Co., Kalamazoo, Mich.
The test protocol was that described by Born and Cross, J. Physiol. 168,178 (1963) with the degree of aggregation measured using a 4-channel aggregometer (Profiler, Bio/Data Co.). The compounds of this invention, Examples 2.1, 4(cis) 4(trans), 6 ad 7 were diluted in saline, at final concentrations of 10^-4 to 10^-9M. Saline was used as a control. Measurements were made for a period of five minutes, After addition of the tromboxane mimetic. From the data obtained, an inhibitory concentration IC50 was calculated using standard methods.

Male NMRI mice = experiment: In vivo inhibition of induced pulmonary emboli (survival after lethal dose of U46619); conditions: lethal dose U46619 (800-1000 ug/kg) into tail vein four hours later, survival after 24 hours, groups of 5; for Survival Rate of Mouse 1 mg/kg, 4 h in %: 1 mg/kg by gastric route in 1% methyl cellulose; for Survival Rate of Mouse 25 mg/kg, 4 h in %: 25 mg/kg by gastric route in 1% methyl cellulose
Description: (b) In vivo Inhibition of Induced Pulmonary Emboli
Male NMRI mice, having a body weight of approximately 25g, were separated into groups of 5. Representative examples of the compounds of this invention listed in part (a) were suspended 1% methyl cellulose and administered to the animals by gastric incubation in amounts providing 1/mg/kg and 25/mg/kg of the antagonist, Four hours after incubation, a previously determined lethal dose of U46619 (800-1000 ug/kg) was injected into the tail vein of each animals. The survival rates for each group of mice was determined after 24 hours. The results are shown in Table 1 and indicate correlation with the IC50 measured in vitro.

| SMILES | IC50 [1] | Survival Rate of Mouse 1 mg/kg, 4 h in % (Male NMRI mice) | Survival Rate of Mouse 25 mg/kg, 4 h in % (Male NMRI mice) |
| --- | --- | --- | --- |
| O=C(CO[C@H]1CC[C@@H](CCNS(=O)(=O)c2ccc(Cl)cc2)CC1)Nc1nnn[nH]1 [4 (cis), cis-4-[2-(4-Chlorobenzenesulphonylamino)-ethyl]cyclohexyloxyacetic acid (tetrazol-5-yl)-amide] | 4.6 µM | 100% | 100% |
| O=C(CO[C@H]1CC[C@H](CCNS(=O)(=O)c2ccc(Cl)cc2)CC1)Nc1nnn[nH]1 [4 (trans), trans-4-[2-(4-chlorobenzenesulphonylamino)-ethyl]-cyclohexyloxy acetic acid (tetrazol-5-yl-amide)] | 5.8 µM | 60% | 100% |
| O=C(O)C1CCC(CCNS(=O)(=O)c2ccc(Cl)cc2)CC1 (stereo not drawn) [Example 2.1] | 2 µM | 100% | 100% |
| O=C(CC1CCC(CCNS(=O)(=O)c2ccc(Cl)cc2)CC1)Nc1nnn[nH]1 (stereo not drawn) [Example 6, 4-[2-(4-Chlorobenzenesulphonylamino)-ethyl]-cyclohexylacetic acid (tetrazol-5-yl-amide)] | 2.5 µM | 100% | 100% |
| O=S(=O)(NCCC1CCC(OCc2nn[nH]n2)CC1)c1ccc(Cl)cc1 (stereo not drawn) [Example 7, 1-[2-(4-Chlorobenzenesulphonylamino)-ethyl]-4-(tetrazol-5-yl-methyleneoxy)-cyclohexane] | 0.42 µM | 100% | 100% |
